Where a name gives a salt, the structure may show the parent alone.
Experiments:
Assay in all cases: CRE-luciferase assay of odorant receptor activation (Dual-Glo, Hana3A cells, RTP1S), dose-response EC50
Assay type in all cases: cell-based
[1] = target: T1, human odorant receptors (ORs) (Homo sapiens, UniProt Q9Y3N9); details: receptor OR2W1; for EC50: read-out: log EC50 (Table 4 value), OR2W1 (converted)
T1 construct: OR open reading frames were amplified from genomic DNA; expressed in transfected cells; host or cells: Hana3A cells, co-transfected with RTP1S, CRE-luciferase and pRL-SV40
T1 sequence (Q9Y3N9 1-320): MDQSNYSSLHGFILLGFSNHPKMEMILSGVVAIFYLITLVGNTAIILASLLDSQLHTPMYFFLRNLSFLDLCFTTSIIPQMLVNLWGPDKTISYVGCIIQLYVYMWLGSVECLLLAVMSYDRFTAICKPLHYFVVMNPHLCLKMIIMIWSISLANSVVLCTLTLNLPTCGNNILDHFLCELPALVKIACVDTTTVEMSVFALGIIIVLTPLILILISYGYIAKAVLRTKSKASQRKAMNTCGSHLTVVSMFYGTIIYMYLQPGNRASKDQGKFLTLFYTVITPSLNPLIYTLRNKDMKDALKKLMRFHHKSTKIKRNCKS
Excerpt: (§1) Cloning mouse and human ORs. […] OR open reading frames were amplified from genomic DNA using proofreading KOD DNA polymerase (Toyobo/Novagen) and subcloned into pCI expression vectors (Promega) containing the first 20 residues of human rhodopsin (Rho tag). The sequences of the cloned receptors were verified by sequencing (3100 Genetic Analyzer, ABI Biosystems). Immunocytochemistry and FACS analysis. […] For FACS analysis, phycoerythrin (PE)-conjugated anti-mouse IgG (Jackson Immunologicals) was used. In order to monitor the transfection efficiency, Green Fluorescent Protein (GFP) was co-transfected with the OR. The intensity of receptor cell surface expression was calculated as the ratio of PE and GFP expression. 7-aminoactinomycin D (Calbiochem) was added before flow cytometry to mark dead cells which were excluded from the analysis. The gate and mean of PE positive cells was normalized by GFP values. Luciferase assay. […] Odorant receptor activation leads to an increase in intracellular cAMP; CRE-luciferase (Stratagene) was used to measure this change. […] Hana3A cells were plated on poly-D-lysine-coated 96-well plates (BioCoat; Becton Dickinson). […] For each 96-well plate transfected, 1 μg of CRE-Luc, 1 μg of pRL-SV40, 5 μg of odorant receptor plasmid, and 1 μg of RTP1S was used. Approximately 24 hours post transfection, the medium was replaced with CD293 chemically defined medium (Gibco) and the plate was incubed for 30 min at 37° C. The medium was then replaced with 25 μL of odorant solution diluted in CD293 and the plate was incubated for 4 hrs at 37° C. and 5% CO2. The manufacturer's protocols for measuring luciferase and Renilla luciferase activities was followed. […] All luminescence values were divided by the Renilla Luciferase activity to control for transfection efficiency in a given well. Normalized luciferase activity was calculated using the formula (LN−Lmin)/(Lmax−Lmin), where LN is the luminescence of firefly luciferase in response to the odorant, Lmin is the minimum luciferase value on a plate or set of plates, and Lmax is the maximum luciferase value on a plate or set of plates. The data was analyzed using Microsoft Excel and GraphPad Prism 4. Screening procedure. The entire OR library was stimulated with eight separate odorant mixtures formed from 93 odorants (FIG. 12). […] A comparison between the 93 individual odorants at a 100 μM dose and a no-odor control was performed for all 290 […]. Each comparison was performed in triplicate; statistical significance was assessed by t-test (uncorrected for multiple comparisons). […] A single odorant was used on each plate to avoid cross-contamination, and each OR odorant dose was tested at least three times. The data was fit to a sigmoidal curve. […] Physicochemical descriptors. […] Receptor descriptors. […] Correlations between descriptors and responses. […] All odorants for which there were fewer than 3 responsive receptors were eliminated. […] The Pearson correlation between these two sets of distances was then measured. Optimizing descriptors. […] In this method one begins with an empty set of descriptors. Each descriptor is combined with the previous set of descriptors and correlation values are computed for all of these candidate sets of descriptors. To reduce overfitting, the data is randomly divided into ten subsets and correlation values are computed for each leave-one out subset. The final correlation coefficient for each set of descriptors is the average of the correlation coefficients for each subset.
(§2) The entire OR library was stimulated with one of 8 odorant mixtures drawn from 93 odorants chosen to represent diverse functional groups, sizes, and structures (Table 3). Each mixture was applied at five different concentrations. […] The 93 odorants were then applied individually at 100 μM to the 290 mixture-responsive ORs.

[2] = system: mouse odorant receptors (ORs); details: for log EC50 (Table 4 value), MOR5-1: receptor MOR5-1; for log EC50 (Table 4 value), MOR30-1: receptor MOR30-1; for log EC50 (Table 4 value), MOR33-1: receptor MOR33-1; for log EC50 (Table 4 value), MOR258-17: receptor MOR258-17; for log EC50 (Table 4 value), MOR1-1: receptor MOR1-1
Excerpt: Cloning mouse and human ORs. […] OR open reading frames were amplified from genomic DNA using proofreading KOD DNA polymerase (Toyobo/Novagen) and subcloned into pCI expression vectors (Promega) containing the first 20 residues of human rhodopsin (Rho tag). The sequences of the cloned receptors were verified by sequencing (3100 Genetic Analyzer, ABI Biosystems). Immunocytochemistry and FACS analysis. […] For FACS analysis, phycoerythrin (PE)-conjugated anti-mouse IgG (Jackson Immunologicals) was used. In order to monitor the transfection efficiency, Green Fluorescent Protein (GFP) was co-transfected with the OR. The intensity of receptor cell surface expression was calculated as the ratio of PE and GFP expression. 7-aminoactinomycin D (Calbiochem) was added before flow cytometry to mark dead cells which were excluded from the analysis. The gate and mean of PE positive cells was normalized by GFP values. Luciferase assay. […] Odorant receptor activation leads to an increase in intracellular cAMP; CRE-luciferase (Stratagene) was used to measure this change. […] Hana3A cells were plated on poly-D-lysine-coated 96-well plates (BioCoat; Becton Dickinson). […] For each 96-well plate transfected, 1 μg of CRE-Luc, 1 μg of pRL-SV40, 5 μg of odorant receptor plasmid, and 1 μg of RTP1S was used. Approximately 24 hours post transfection, the medium was replaced with CD293 chemically defined medium (Gibco) and the plate was incubed for 30 min at 37° C. The medium was then replaced with 25 μL of odorant solution diluted in CD293 and the plate was incubated for 4 hrs at 37° C. and 5% CO2. The manufacturer's protocols for measuring luciferase and Renilla luciferase activities was followed. […] All luminescence values were divided by the Renilla Luciferase activity to control for transfection efficiency in a given well. Normalized luciferase activity was calculated using the formula (LN−Lmin)/(Lmax−Lmin), where LN is the luminescence of firefly luciferase in response to the odorant, Lmin is the minimum luciferase value on a plate or set of plates, and Lmax is the maximum luciferase value on a plate or set of plates. The data was analyzed using Microsoft Excel and GraphPad Prism 4. Screening procedure. The entire OR library was stimulated with eight separate odorant mixtures formed from 93 odorants (FIG. 12). […] A comparison between the 93 individual odorants at a 100 μM dose and a no-odor control was performed for all 290 […]. Each comparison was performed in triplicate; statistical significance was assessed by t-test (uncorrected for multiple comparisons). […] A single odorant was used on each plate to avoid cross-contamination, and each OR odorant dose was tested at least three times. The data was fit to a sigmoidal curve. […] Physicochemical descriptors. […] Receptor descriptors. […] Correlations between descriptors and responses. […] All odorants for which there were fewer than 3 responsive receptors were eliminated. For all remaining odorant pairs the Pearson correlation between EC50 vectors and the Euclidean distance between descriptor vectors was calculated. The Pearson correlation between these two sets of distances was then measured. Optimizing descriptors. […] In this method one begins with an empty set of descriptors. Each descriptor is combined with the previous set of descriptors and correlation values are computed for all of these candidate sets of descriptors. To reduce overfitting, the data is randomly divided into ten subsets and correlation values are computed for each leave-one out subset. The final correlation coefficient for each set of descriptors is the average of the correlation coefficients for each subset. The set with the best correlation coefficient then becomes the new set of descriptors and the process is repeated until the correlation coefficient increases by less than 0.004 in three consecutive iterations.

[3] = target: T2, human odorant receptors (ORs) (Homo sapiens, UniProt Q9P1Q5); details: receptor OR1A1; read-out: log EC50 (Table 4 value), OR1A1 (converted)
T2 construct: OR open reading frames were amplified from genomic DNA; expressed in transfected cells; host or cells: Hana3A cells, co-transfected with RTP1S, CRE-luciferase and pRL-SV40
T2 sequence (Q9P1Q5 1-309): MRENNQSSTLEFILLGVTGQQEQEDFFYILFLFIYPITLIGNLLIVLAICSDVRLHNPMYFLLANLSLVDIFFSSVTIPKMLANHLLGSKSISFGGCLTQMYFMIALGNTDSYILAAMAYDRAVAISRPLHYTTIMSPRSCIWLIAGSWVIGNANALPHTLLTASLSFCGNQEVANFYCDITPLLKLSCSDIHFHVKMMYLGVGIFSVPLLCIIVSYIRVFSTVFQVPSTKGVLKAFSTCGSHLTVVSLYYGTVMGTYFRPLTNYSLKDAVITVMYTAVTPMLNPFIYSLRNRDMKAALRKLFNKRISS
Excerpt: as §1, §2

CCCCCCC=O [Heptonal]
log EC50 (Table 4 value), OR2W1 [1]: −4.056

CCCCCCCCCC(=O)O [Decanoic acid]
EC50 [1]: 175 µM | log EC50 (Table 4 value), MOR5-1 [2]: −3.749 | log EC50 (Table 4 value), MOR25-1 ([2]; receptor MOR25-1): −4.194 | log EC50 (Table 4 value), MOR30-1 [2]: −4.987 | log EC50 (Table 4 value), MOR33-1 [2]: −4.487 | log EC50 (Table 4 value), MOR37-1 ([2]; receptor MOR37-1): −4.323 | log EC50 (Table 4 value), MOR40-1 ([2]; receptor MOR40-1): −4.121 | log EC50 (Table 4 value), MOR203-1 ([2]; receptor MOR203-1): −3.751 | log EC50 (Table 4 value), MOR258-17 [2]: −4.627 | log EC50 (Table 4 value), MOR260-1 ([2]; receptor MOR260-1): −3.542

CC12CCC(CC1=O)C2(C)C (stereo not drawn) [(−)-Camphor]
log EC50, MOR107-1 ([2]; receptor MOR107-1, 0 = no response): −3.704 | log EC50, MOR128-2 ([2]; receptor MOR128-2, 0 = no response): −4.373 | log EC50, MOR138-1 ([2]; receptor MOR138-1, 0 = no response): −4.952 | log EC50, MOR139-1 ([2]; receptor MOR139-1, 0 = no response): −3.902 | log EC50, MOR189-1 ([2]; receptor MOR189-1, 0 = no response): −4.839 | log EC50, MOR277-1 ([2]; receptor MOR277-1, 0 = no response): −3.861

CCCCCO [1-Pentanol]
log EC50, MOR41-1 ([2]; receptor MOR41-1, 0 = no response): −3.537

C=CCOC(=O)CCCCCC [Allyl heptanoate]
EC50 [3]: 475 µM

CCC(C(=O)O)c1ccccc1 (single isomer, unassigned; (-)) [(−)-2-Phenylbutric acid]
log EC50, MOR2-1 ([2]; receptor MOR2-1, 0 = no response): −2.982

CCCCOC=O [Butyl formate]
EC50 [1]: 37.4 µM

CCCCCCO [Hexanol]
log EC50 (Table 4 value), OR2W1 [1]: −5.102 | log EC50 (Table 4 value), MOR1-1 [2]: −3.987 | log EC50 (Table 4 value), MOR4-1 ([2]; receptor MOR4-1): −3.231 | log EC50 (Table 4 value), MOR271-1 ([2]; receptor MOR271-1): −3.322

CCCCCOC(=O)CCCCC [Amyl hexanote]
log EC50 (Table 4 value), MOR258-17 [2]: −4.462

CCCC(C)=O [2-Penonone]
log EC50, MOR271-1 ([2]; receptor MOR271-1, 0 = no response): −5.111

CCCCCCC(=O)O [Heptanoic acid]
log EC50 (Table 4 value), MOR1-1 [2]: −3.823 | log EC50 (Table 4 value), MOR5-1 [2]: −3.583 | log EC50 (Table 4 value), MOR23-1 ([2]; receptor MOR23-1): −4.856 | log EC50 (Table 4 value), MOR30-1 [2]: −3.575 | log EC50 (Table 4 value), MOR31-1 ([2]; receptor MOR31-1): −5.2 | log EC50 (Table 4 value), MOR33-1 [2]: −4.148

— patent publication US20100248390A1, “COMPOSITIONS AND METHODS FOR IDENTIFYING LIGANDS OF ODORANT RECEPTORS” (DUKE UNIVERSITY, priority 2009, published 2010)
